tested on: embryos from zebrafish model of DMD; experiment: not given; conditions: Li and Amer, PLoSONE, 2015; cited from earlier work

Row | Structure (SMILES) | protection of muscles from pathological muscle derangement
1 | Cc1ccc(S(=O)(=O)NCc2ccccc2)cc1 [BTS, N-benzyl-p-tolyl-sulfonamide] | protect muscles from pathological muscle derangement

target: T1, skeletal myofibrils (Rabbit Psoas), myosin ATPase activity; experiment: Skeletal Myofibril ATPase Assay; type: biochemical; conditions: skeletal myofibrils (Rabbit Psoas 0.25 mg/mL), PK/LDH-coupled NADH absorbance at 340 nm
T1 construct: Rabbit Psoas Prep 11 (0.25 mg/mL)
Experimental: Overview: Myosin ATPase activity is assessed by using a coupled reaction system, in which ADP generated by the myosin ATPase function is coupled to the disappearance of NADH through the pyruvate kinase/lactate dehydrogenase (PK-LDH) system. Myosin ATPase activity produces ADP, which is used as a substrate for PK to produce pyruvate and regenerate ATP. The pyruvate is then used as a substrate by LDH to oxidize NADH to NAD+. The rate of the reaction is monitored through the time-dependent disappearance of NADH using absorbance at 340 nm. Inhibition of ATPase activity by the assayed compounds is indicated by a reduced rate of NADH loss, relative to vehicle-treated controls, over the experimental time window. To assess the selectivity of the assayed compounds for skeletal myofibrils, the compounds are counter-screened in cardiac myofibrils.
Materials: The following stock solutions and reagents were used in the Skeletal Myofibril ATPase Assay:
Stock Solutions of pCa buffer. Combine PIPES, CaCl2, and EGTA solutions with 70 mL of water. Adjust pH to 7.0 and bring final volume to 100 mL.
Buffer A & Buffer B. Buffers were stored on ice until use.
Skeletal Myofibril ATPase Assay Procedure: BSA, ATP, NADH, PEP, and DTT solutions were thawed at room temperature, then transferred to ice. Pellet-frozen myofibrils were transferred with approximately twice the required volume into a sufficiently large tube and capped. Myofibrils were thawed by rolling in a water bath for approximately 15 min at room temperature and cooled on ice. Buffers A and B were prepared by adjusting volumes as necessary for required number of wells and stored on ice. 0.5 μL of the compounds to be assayed were added into wells. 25 μL of Buffer A was dispensed into the wells, followed by 25 μL of Buffer B. The wells were measured for absorbance at 340 nm, using a kinetic protocol in which the wells are read every 1.5-2 min for 45 min. The slope of the data was approximated by subtracting the minimum absorbance value from the maximum value for each well. This was accomplished either in the SoftMax Pro software or in a spreadsheet program such as Excel. Using GraphPad Prism 8.0, the data was normalized by assigning a value of 100% to the 1% DMSO vehicle wells. Typically, a normalized 0% value was simply assigned to a (Max−Min) value of 0. The normalized data was fit to a Four Parameter Logistic sigmoidal equation, constraining the bottom to be 0 or greater. Compounds of Table 1 to 4 were tested and results of the assay appear in Table 5 herein. A=IC50 is less than or equal to 10 μM; B=IC50 is greater than 10 μM and less than 100 μM; C=IC50 is greater than 100 μM.

Row | IC50 [µM] | Structure (SMILES)
2 | < 10 | CC1CCC(=O)N1c1ncc(-c2ccc(=O)n(Cc3ccc(Cl)cc3)n2)cn1 (stereo not shown) [Compound 47, 2-(4-chlorobenzyl)-6-(2-(2-methyl-5-oxopyrrolidin-1-yl)pyrimidin-5-yl)pyridazin-3(2H)-one]
3 | < 10 | COc1ccc(Cn2nc(-c3ccc(Cl)cc3)ccc2=O)cc1 [Compound 235, 6-(4-chlorophenyl)-2-(4-methoxybenzyl)pyridazin-3(2H)-one]
4 | > 100 | O=c1ccc(-c2ccc(Cl)cc2)nn1Cc1ccc(C(F)(F)F)cc1 [Compound 305, 6-(4-chlorophenyl)-2-(4-(trifluoromethyl)benzyl)pyridazin-3(2H)-one]
5 | < 10 | N#CCOc1ccc(-c2ccc(=O)n(Cc3ccc(Cl)cc3)n2)cc1 [Compound 108, 2-(4-(1-(4-chlorobenzyl)-6-oxo-1,6-dihydropyridazin-3-yl)phenoxy)acetonitrile]
6 | < 10 | O=c1ccc(-c2ccc(Cl)cc2)nn1Cc1cccc(Cl)c1 [Compound 307, 2-(3-chlorobenzyl)-6-(4-chlorophenyl)pyridazin-3(2H)-one]
7 | < 10 | Cc1ccccc1Cn1nc(-c2ccc(Cl)cc2)ccc1=O [Compound 308, 6-(4-chlorophenyl)-2-(2-methylbenzyl)pyridazin-3(2H)-one]
8 | < 10 | CCc1ccc(-c2ccc(=O)n(Cc3ccc(Cl)cc3)n2)cc1 [Compound 313, 2-(4-chlorobenzyl)-6-(4-ethylphenyl)pyridazin-3(2H)-one]
9 | < 10 | CC1Cc2cc(-c3ccc(=O)n(Cc4ccc(Cl)cc4)n3)ccc2O1 (stereo not shown) [Compound 109, 2-(4-chlorobenzyl)-6-(2-methyl-2,3-dihydrobenzofuran-5-yl)pyridazin-3(2H)-one]
10 | < 10 | O=c1ccc(-c2cnc(OCCOC(F)F)nc2)nn1Cc1ccc(Cl)cc1 [Compound 1, 2-(4-chlorobenzyl)-6-(2-(2-(difluoromethoxy)ethoxy)pyrimidin-5-yl)pyridazin-3(2H)-one]
11 | < 10 | O=c1ccc(-c2ccc(Cl)nc2)nn1Cc1ccc(Cl)cc1 [Compound 304, 2-(4-chlorobenzyl)-6-(6-chloropyridin-3-yl)pyridazin-3(2H)-one]
12 | < 10 | COc1ccc(-c2ccc(=O)n(Cc3ccc(Cl)cc3)n2)cc1 [Compound 212, 2-(4-chlorobenzyl)-6-(4-methoxyphenyl)pyridazin-3(2H)-one]
13 | > 100 | CC1(C)Cc2cc(-c3ccc(=O)n(Cc4ccc(Cl)cc4)n3)ccc2O1 [Compound 115, 2-(4-chlorobenzyl)-6-(2,2-dimethyl-2,3-dihydrobenzofuran-5-yl)pyridazin-3(2H)-one]
14 | < 10 | O=c1ccc(-c2cnc(OC(F)F)nc2)nn1Cc1ccc(Cl)cc1 [Compound 10, 2-(4-chlorobenzyl)-6-(2-(difluoromethoxy)pyrimidin-5-yl)pyridazin-3(2H)-one]
15 | < 10 | O=c1ccc(-c2ccc(OC(F)F)nc2)nn1Cc1ccc(Cl)c(F)c1 [Compound 15, 2-(4-chloro-3-fluorobenzyl)-6-(6-(difluoromethoxy)pyridin-3-yl)pyridazin-3(2H)-one]
16 | < 10 | O=c1ccc(-c2ccc(OCC(F)(F)F)cc2)nn1Cc1ccc(Cl)cc1 [Compound 101, 2-(4-chlorobenzyl)-6-(4-(2,2,2-trifluoroethoxy)phenyl)pyridazin-3(2H)-one]
17 | < 10 | CCCc1ccc(-c2ccc(=O)n(Cc3ccc(Cl)cc3)n2)cc1 [Compound 312, 2-(4-chlorobenzyl)-6-(4-propylphenyl)pyridazin-3(2H)-one]
18 | < 10 | O=c1ccc(-c2cnc(OCCOC(F)(F)F)nc2)nn1Cc1ccc(Cl)cc1 [Compound 2, 2-(4-chlorobenzyl)-6-(2-(2-(trifluoromethoxy)ethoxy)pyrimidin-5-yl)pyridazin-3(2H)-one]

Second part, the compound before the results:

Row | Structure (SMILES) | IC50 [µM]
19 | O=c1ccc(-c2cnc(OCC(F)(F)F)nc2)nn1Cc1ccc(F)cc1F [Compound 39, 2-(2,4-difluorobenzyl)-6-(2-(2,2,2-trifluoroethoxy)pyrimidin-5-yl)pyridazin-3(2H)-one] | < 10
20 | O=c1ccc(-c2cnc(OCC(F)(F)F)nc2)nn1Cc1c(F)cccc1F [Compound 41, 2-(2,6-difluorobenzyl)-6-(2-(2,2,2-trifluoroethoxy)pyrimidin-5-yl)pyridazin-3(2H)-one] | < 10
21 | O=c1ccc(-c2cnc(OCC(F)(F)F)nc2)nn1Cc1cc(F)cc(F)c1 [Compound 43, 2-(3,5-difluorobenzyl)-6-(2-(2,2,2-trifluoroethoxy)pyrimidin-5-yl)pyridazin-3(2H)-one] | < 10
22 | O=c1ccc(-c2cnc(OCC3(F)COC3)nc2)nn1Cc1ccc(F)cc1F [Compound 24, 2-(2,4-difluorobenzyl)-6-(2-((3-fluorooxetan-3-yl)methoxy)pyrimidin-5-yl)pyridazin-3(2H)-one] | < 10
23 | CC1CCCN1c1ncc(-c2ccc(=O)n(Cc3ccc(F)cc3F)n2)cn1 (stereo not shown) [Compound 16, 2-(2,4-difluorobenzyl)-6-(2-(2-methylpyrrolidin-1-yl)pyrimidin-5-yl)pyridazin-3(2H)-one] | < 10
24 | O=c1ccc(-c2cnc(OCC(F)(F)F)nc2)nn1Cc1cccc(F)c1F [Compound 38, 2-(2,3-difluorobenzyl)-6-(2-(2,2,2-trifluoroethoxy)pyrimidin-5-yl)pyridazin-3(2H)-one] | < 10
25 | C[C@@H](c1ccccc1)n1nc(-c2ccc(Cl)cc2)ccc1=O [Compound 315, (S)-6-(4-chlorophenyl)-2-(1-phenylethyl)pyridazin-3(2H)-one] | > 100
26 | O=c1ccc(-c2cnc(OCC(F)(F)F)nc2)nn1Cc1cc(F)ccc1F [Compound 40, 2-(2,5-difluorobenzyl)-6-(2-(2,2,2-trifluoroethoxy)pyrimidin-5-yl)pyridazin-3(2H)-one] | < 10
27 | O=c1ccc(-c2cnc(N3CCCC3C(F)(F)F)nc2)nn1Cc1ccc(F)cc1F (stereo not shown) [Compound 30, 2-(2,4-difluorobenzyl)-6-(2-(2-(trifluoromethyl)pyrrolidin-1-yl)pyrimidin-5-yl)pyridazin-3(2H)-one] | < 10
28 | O=c1ccc(-c2cnc(OCC(F)(F)F)nc2)nn1Cc1ccccc1O [Compound 49, 2-(2-hydroxybenzyl)-6-(2-(2,2,2-trifluoroethoxy)pyrimidin-5-yl)pyridazin-3(2H)-one] | < 10
29 | O=c1ccc(-c2cnc(OCC(F)(F)F)nc2)nn1Cc1ccc(O)c(Cl)c1 [Compound 7, 2-(3-chloro-4-hydroxybenzyl)-6-(2-(2,2,2-trifluoroethoxy)pyrimidin-5-yl)pyridazin-3(2H)-one] | < 10
30 | O=c1ccc(-c2cnc(N3CCCC3)nc2)nn1Cc1ccc(F)cc1F [Compound 23, 2-(2,4-difluorobenzyl)-6-(2-(pyrrolidin-1-yl)pyrimidin-5-yl)pyridazin-3(2H)-one] | < 10
31 | COc1ccc(-c2ccc(=O)n(Cc3ccccc3)n2)cc1 [Compound 211, 2-benzyl-6-(4-methoxyphenyl)pyridazin-3(2H)-one] | < 10
32 | O=c1ccc(-c2cnc(OCC(F)(F)F)nc2)nn1Cc1ccccc1F [Compound 36, 2-(2-fluorobenzyl)-6-(2-(2,2,2-trifluoroethoxy)pyrimidin-5-yl)pyridazin-3(2H)-one] | < 10
33 | CN(CC(F)(F)F)c1ncc(-c2ccc(=O)n(Cc3ccc(F)cc3F)n2)cn1 [Compound 29, 2-(2,4-difluorobenzyl)-6-(2-(methyl(2,2,2-trifluoroethyl)amino)pyrimidin-5-yl)pyridazin-3(2H)-one] | < 10
34 | O=c1ccc(-c2cnc(OCC3COC3)nc2)nn1Cc1ccc(F)cc1F [Compound 25, 2-(2,4-difluorobenzyl)-6-(2-(oxetan-3-ylmethoxy)pyrimidin-5-yl)pyridazin-3(2H)-one] | < 10

— patent publication US11390606B2, “Pyridazinone compounds and uses thereof” (Edgewise Therapeutics, Inc., priority 2018, dated 2022)
